PubChem BioAssay AID192 (DTP/NCI, 2004)
“And” between values parts separate entries of the source, which are not always exact repeats. Equal values may be shown once. Toxic doses and inconclusive results are not listed.

Test system: BDF1 mice, B16 melanoma ip, median survival T/C
Assay: NCI In Vivo Anticancer Drug Screen. Data for tumor model B16 Melanoma (intraperitoneal) in B6D2F1 (BDF1) mice
Conditions: endpoint: median survival time, higher = longer survival
Method in brief: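 Vehicle-treated animals serve as the reference (C); treated animals (T) are scored for survival or tumor size after tumor transplantation.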

[1] = dose: 12.5 mg/kg/injection, schedule: Q01DX009 (ip), vehicle: saline with Tween-80
[2] = dose: 25.0 mg/kg/injection, schedule: Q01DX009 (ip), vehicle: saline with Tween-80
[3] = dose: 50.0 mg/kg/injection, schedule: Q01DX009 (ip), vehicle: saline with Tween-80
[4] = dose: 25.0 mg/kg/injection, schedule: Q01DX009 (ip), vehicle: Klucel (hydroxypropylcellulose) (HPC)
[5] = dose: 50.0 mg/kg/injection, schedule: Q01DX009 (ip), vehicle: Klucel (hydroxypropylcellulose) (HPC)
[6] = dose: 100.0 mg/kg/injection, schedule: Q01DX009 (ip), vehicle: Klucel (hydroxypropylcellulose) (HPC)
[7] = dose: 200.0 mg/kg/injection, schedule: Q01DX009 (ip), vehicle: Klucel (hydroxypropylcellulose) (HPC)
[8] = dose: 400.0 mg/kg/injection, schedule: Q01DX009 (ip), vehicle: Klucel (hydroxypropylcellulose) (HPC)
[9] = dose: 100.0 mg/kg/injection, schedule: Q01DX009 (ip), vehicle: saline with Tween-80
[10] = dose: 200.0 mg/kg/injection, schedule: Q01DX009 (ip), vehicle: saline with Tween-80
[11] = dose: 3.12 mg/kg/injection, schedule: Q01DX009 (ip), vehicle: saline
[12] = dose: 6.25 mg/kg/injection, schedule: Q01DX009 (ip), vehicle: saline
[13] = dose: 12.5 mg/kg/injection, schedule: Q01DX009 (ip), vehicle: saline
[14] = dose: 25.0 mg/kg/injection, schedule: Q01DX009 (ip), vehicle: saline
[15] = dose: 50.0 mg/kg/injection, schedule: Q01DX009 (ip), vehicle: saline
[16] = dose: 100.0 mg/kg/injection, schedule: Q01DX009 (ip), vehicle: saline
[17] = dose: 12.5 mg/kg/injection, schedule: Q01DX009 (ip), vehicle: Klucel (hydroxypropylcellulose) (HPC)
[18] = dose: 100.0 mg/kg/injection, schedule: Q04DX003 (ip), vehicle: Klucel (hydroxypropylcellulose) (HPC)
[19] = dose: 200.0 mg/kg/injection, schedule: Q04DX003 (ip), vehicle: Klucel (hydroxypropylcellulose) (HPC)
[20] = dose: 400.0 mg/kg/injection, schedule: Q01DX009 (ip), vehicle: saline with Tween-80

`O=C(O)C1C2CCC1C2` (stereo not drawn) was tested, and the T/C (dose: 25.0 mg/kg/injection, schedule: Q04DX003 (ip), vehicle: saline with Tween-80) was 103 % of control, the T/C (dose: 50.0 mg/kg/injection, schedule: Q04DX003 (ip), vehicle: saline with Tween-80) was 102 % of control and the T/C (dose: 100.0 mg/kg/injection, schedule: Q04DX003 (ip), vehicle: saline with Tween-80) was 97 % of control and 102 % of control.
`Cc1c(Cl)cccc1NC(=O)NCCC(C)C` was tested, and the T/C [1] was 103 % of control, the T/C [2] was 100 % of control and the T/C [3] was 96 % of control.
For `CN(C1=NS(=O)(=O)N=C(N(C)c2ccccc2)O1)c1ccccc1`, the T/C [4] was 101 % of control, the T/C [5] was 108 % of control and the T/C [6] was 96 % of control. For the same compound, the T/C [7] was 93 % of control and the T/C [8] was 87 % of control.
`COc1ccccc1NC(=O)Nc1ccc(C(=O)OCC(C)C)cc1` was tested, and the T/C [3] was 100 % of control, the T/C [9] was 94 % of control and the T/C [10] was 95 % of control.
In the case of `CN(C)C1CC1c1ccccc1` (stereo not drawn), the T/C [11] is reported as 92 % of control, the T/C [12] is reported as 107 % of control and the T/C [13] is reported as 97 % of control. For the same compound, the T/C [14] was 100 % of control, the T/C [15] was 105 % of control and the T/C [16] was 98 % of control.
In the case of `COc1ccc(CSCC(NC(=O)OC(C)(C)C)C(=O)O)cc1` (stereo not drawn), the T/C [6] is reported as 110 % of control, the T/C [7] is reported as 97 % of control and the T/C [8] is reported as 95 % of control.
For `NNC(=O)c1ccncc1`, the T/C [13] was 111 % of control, the T/C (dose: 16.0 mg/kg/injection, schedule: Q01DX009 (ip), vehicle: saline) was 98 % of control and the T/C [14] was 100 % of control. The T/C (dose: 32.0 mg/kg/injection, schedule: Q01DX009 (ip), vehicle: saline) was 98 % of control, the T/C [15] was 105 % of control and the T/C (dose: 64.0 mg/kg/injection, schedule: Q01DX009 (ip), vehicle: saline) was 100 % of control. The T/C [16] was 111 % of control and the T/C (dose: 128.0 mg/kg/injection, schedule: Q01DX009 (ip), vehicle: saline) was 90 % of control.
`CCC1CN2CCC3(C(=O)Nc4ccccc43)C2CC1/C(=C/OC)C(=O)OC` (stereo not drawn) was tested, and the T/C [3] was 95 % of control.
`O=C1CNC(c2ccccc2)c2cc(Cl)ccc2N1` (stereo not drawn) was tested, and the T/C [17] was 107 % of control, the T/C [4] was 97 % of control and the T/C [5] was 107 % of control. For the same compound, the T/C [6] was 94 % of control and the T/C [7] was 102 % of control.
`CCCCC(CC)C1OC(=O)C(C)O1` (stereo not drawn) was tested, and the T/C [18] was 98 % of control and the T/C [19] was 100 % of control.
With `Cc1ccc(NC(=S)N(C)C)cc1C` the T/C [6] was 100 % of control, the T/C [7] was 100 % of control and the T/C [8] was 92 % of control.
`N#Cc1ncc(C(Cl)Cl)nc1Cl` was tested, and the T/C (dose: 3.13 mg/kg/injection, schedule: Q01DX009 (ip), vehicle: saline + alcohol) was 96 % of control, the T/C (dose: 6.25 mg/kg/injection, schedule: Q01DX009 (ip), vehicle: saline + alcohol) was 91 % of control and the T/C (dose: 12.5 mg/kg/injection, schedule: Q01DX009 (ip), vehicle: saline + alcohol) was 93 % of control. For the same compound, the T/C (dose: 25.0 mg/kg/injection, schedule: Q01DX009 (ip), vehicle: saline + alcohol) was 89 % of control and the T/C [2] was 94 % of control.
For `Cc1cccc(CN)n1`, the T/C [15] was 105 % of control and the T/C [16] was 118 % of control.
With `CC(=O)OC1C(O)C(C)OC(OC2C(OC(=O)C3CCC4C(C3)OC3(CC(OC(=O)/C=C/c5ccccc5)C(C)CO3)C43CO3)OC(C)C(O)C2OC(C)=O)C1O` (stereo not drawn) the T/C (dose: 0.5 mg/kg/injection, schedule: Q01DX009 (ip), vehicle: saline + alcohol) was 110 % of control, the T/C (dose: 1.0 mg/kg/injection, schedule: Q01DX009 (ip), vehicle: saline + alcohol) was 120 % of control and the T/C (dose: 8.0 mg/kg/injection, schedule: Q01DX009 (ip), vehicle: saline + alcohol) was 152 % of control and 158 % of control. The T/C (dose: 16.0 mg/kg/injection, schedule: Q01DX009 (ip), vehicle: saline + alcohol) was 151 % of control.
For `CNC(=S)N/N=C(/C)CCC/C(C)=N/NC(=S)NC`, the T/C (dose: 6.25 mg/kg/injection, schedule: Q01DX009 (ip), vehicle: saline with Tween-80) was 94 % of control, the T/C [1] was 94 % of control and the T/C [2] was 97 % of control.
With `Cc1ccc(S(=O)(=O)NC(CSSCC(NS(=O)(=O)c2ccc(C)cc2)C(=O)OC(C)(C)C)C(=O)OC(C)(C)C)cc1` (stereo not drawn) the T/C [5] was 107 % of control.
With `O=C1C=C(C2CCCCC2)C(=O)c2ccccc21` the T/C [1] was 106 % of control, the T/C [2] was 101 % of control and the T/C [3] was 92 % of control. The T/C [9] was 92 % of control.
With `O=[N+]([O-])C(CO)(CO)CO` the T/C (dose: 100.0 mg/kg/injection, schedule: Q04DX003 (ip), vehicle: saline) was 110 % of control, the T/C (dose: 200.0 mg/kg/injection, schedule: Q04DX003 (ip), vehicle: saline) was 110 % of control and the T/C (dose: 400.0 mg/kg/injection, schedule: Q04DX003 (ip), vehicle: saline) was 96 % of control.
In the case of `NNC(=O)c1ccccc1O`, the T/C [2] is reported as 100 % of control, the T/C [3] is reported as 95 % of control and the T/C [9] is reported as 95 % of control.
In the case of `O=NNc1ccccn1`, the T/C [11] is reported as 116 % of control, the T/C [12] is reported as 119 % of control and the T/C [13] is reported as 156 % of control and 165 % of control.
In the case of `Cc1cc(C)c(-c2cc(O)c(C)cc2O)c(C)c1`, the T/C [17] is reported as 95 % of control, the T/C [4] is reported as 97 % of control and the T/C [5] is reported as 97 % of control. For the same compound, the T/C [6] was 93 % of control and the T/C [7] was 90 % of control.
For `O=C1NC(=O)C2(CCc3ccc(N(CCCl)CCCl)cc32)N1` (stereo not drawn), the T/C (dose: 1.5 mg/kg/injection, schedule: Q01DX009 (ip), vehicle: saline with Tween-80) was 120 % of control, the T/C (dose: 3.0 mg/kg/injection, schedule: Q01DX009 (ip), vehicle: saline with Tween-80) was 116 % of control and the T/C (dose: 12.0 mg/kg/injection, schedule: Q01DX009 (ip), vehicle: saline with Tween-80) was 183 % of control. The T/C (dose: 12.5 mg/kg/injection, schedule: Q01DX004 (oral), vehicle: saline with Tween-80) was 102 % of control.
`C/C=C/CNc1ccccc1` was tested, and the T/C [3] was 101 % of control and the T/C [9] was 94 % of control.
`CC(C)(C)c1cc([N+](=O)[O-])cc(C(C)(C)C)c1O` was tested, and the T/C [4] was 95 % of control, the T/C [5] was 93 % of control and the T/C [6] was 95 % of control.
In the case of `Nn1c(=O)[nH][nH]c1=O`, the T/C [5] is reported as 92 % of control, the T/C [6] is reported as 110 % of control and the T/C [9] is reported as 115 % of control. The T/C [7] was 89 % of control, the T/C [10] was 105 % of control and the T/C [20] was 105 % of control.
`Cc1cccc(C)c1NC(=O)Nc1cccc2ccccc12` was tested, and the T/C (dose: 100.0 mg/kg/injection, schedule: Q01DX009 (ip), vehicle: gum acacia) was 117 % of control, the T/C (dose: 200.0 mg/kg/injection, schedule: Q01DX009 (ip), vehicle: gum acacia) was 109 % of control and the T/C (dose: 400.0 mg/kg/injection, schedule: Q01DX009 (ip), vehicle: gum acacia) was 100 % of control.
In the case of `CC(Br)C(=O)NC(CC(N)=O)C(=O)O` (stereo not drawn), the T/C [3] is reported as 91 % of control, the T/C [9] is reported as 104 % of control and the T/C [10] is reported as 93 % of control.
In the case of `N#CCN1CCCCC1`, the T/C (dose: 0.39 mg/kg/injection, schedule: Q01DX009 (ip), vehicle: saline) is reported as 96 % of control, the T/C (dose: 0.78 mg/kg/injection, schedule: Q01DX009 (ip), vehicle: saline) is reported as 100 % of control and the T/C (dose: 1.56 mg/kg/injection, schedule: Q01DX009 (ip), vehicle: saline) is reported as 102 % of control.
For `O=C(N/N=C/c1ccc(N(CCCl)CCCl)cc1)c1ccc(C(=O)N/N=C/c2ccc(N(CCCl)CCCl)cc2)cc1`, the T/C (dose: 25.0 mg/kg/injection, schedule: Q04DX003 (ip), vehicle: Klucel (hydroxypropylcellulose) (HPC)) was 97 % of control, the T/C (dose: 50.0 mg/kg/injection, schedule: Q04DX003 (ip), vehicle: Klucel (hydroxypropylcellulose) (HPC)) was 90 % of control and 100 % of control and the T/C [18] was 97 % of control. The T/C [19] was 90 % of control and 95 % of control.
For `CC(CP(=O)(c1ccccc1)c1ccccc1)C(=O)O` (stereo not drawn), the T/C [9] was 95 % of control, the T/C [10] was 97 % of control and the T/C [20] was 90 % of control.
`CC(CN=Cc1ccccc1O)N=Cc1ccccc1O` (stereo not drawn) was tested, and the T/C [17] was 91 % of control, the T/C [4] was 88 % of control and the T/C [5] was 87 % of control. For the same compound, the T/C [6] was 89 % of control.
In the case of `O=C(O)c1cccc2c(=O)c3ccccc3sc12`, the T/C [6] is reported as 100 % of control, the T/C [7] is reported as 100 % of control and the T/C [8] is reported as 93 % of control.
